We go through seven compounds from US6110888A, “Substituted phenols as fragrance, flavor and antimicrobial compounds” (Takasago International Corporation, priority 1999, dated 2000).

In one experiment the test system is oral bacteria. To be noted: N. Didry et al. 1994; cited from earlier work.
A further experiment deals with Staphylococcus aureus. The experiment is described as follows: MIC, S. aureus (Table 1). To be noted: S. aureus strain 6535, gram+, read-out: Anti-Microbial Activity MIC, S. a. In kind it is cell-based. The protocol: (§1) The anti-microbial activity of Examples 1-6 were evaluated.
(§2) Anti-Microbial Activity of Examples 1-6 (MIC in μg/mL)
(§3) Antimicrobial activity was evaluated to determine minimal inhibitory concentration ("MIC") and Minimal Bactericidal Concentration ("MBC"). The specific biological testing protocol is published R. Kang et al., "J. Agric. Food Chem.," vol. 40 pp. 2328-2330 (1994), the entirety of which is herein incorporated by reference.

Experiment [1] relates to Staphylococcus epidermidis. The experiment is described as follows: MIC, S. epidermidis (Table 1). The format is cell-based. To be noted: S. epidermidis strain 1228, gram+, read-out: Anti-Microbial Activity MIC, S. e. The procedure: as §1, §2, §3
Another experiment concerns Steptococcus mutans. The experiment is described as follows: MIC, S. mutans (Table 1). The format is cell-based. To be noted: Streptococcus mutans; S. mutans strain 25175, gram+; read-out: Anti-Microbial Activity MIC, S. m. The protocol:
as §1, §2, §3

A further experiment deals with Propionibacterium acnes. Description: MIC, P. acnes (Table 1). In kind it is cell-based. To be noted: Cutibacterium acnes; P. acnes strain 6919, gram+; read-out: Anti-Microbial Activity MIC, P. acnes. The procedure:
as §1, §2, §3

Experiment [2] deals with Corynebacterium minutissimum. Description: MIC, C. minutissimum (Table 1). In kind it is cell-based. Particulars: C. minutissimum strain 23348, gram+, read-out: Anti-Microbial Activity MIC, C. m. The procedure:
as §1, §2, §3

Another experiment has as its system Corynebacterium xerosis. Description: MIC, C. xerosis (Table 1). Particulars: C. xerosis strain 373, gram+, read-out: Anti-Microbial Activity MIC, C. x. In kind it is cell-based. The procedure: as §1, §2, §3
Another experiment deals with Actinomyces neaslundii. The experiment is described as follows: MIC, A. neaslundii (Table 1). The format is cell-based. Particulars: A. neaslundii strain 19039, gram+, read-out: Anti-Microbial Activity MIC, A. neasl. The protocol: as §1, §2, §3
Another experiment relates to Escherichia coli. The experiment is described as follows: MIC, E. coli (Table 2). The format is cell-based. Particulars: E. coli strain 11229, gram -, read-out: Anti-Microbial Activity MIC, E. c. The procedure: as §2, §3
The subject of a further experiment is Pseudomonas aeruginosa. Description: MIC, P. aeruginosa (Table 2). The format is cell-based. To be noted: P. aeruginosa strain 15442, gram -, read-out: Anti-Microbial Activity MIC, P. aerug. The protocol: as §2, §3
For a further experiment, the system named is Candida albicans. Description: MIC, C. albicans (Table 2). In kind it is cell-based. To be noted: C. albicans strain 10231, fungi, read-out: Anti-Microbial Activity MIC, C. a. The procedure:
as §2, §3

The test system of another experiment is Aspergillus niger. The experiment is described as follows: MIC, A. niger (Table 2). In kind it is cell-based. To be noted: A. niger strain 16404, fungi, read-out: Anti-Microbial Activity MIC, A. niger. The procedure: as §2, §3

The term MIC denotes the lowest concentration found to suppress growth.

≈ marks a conversion by molar mass, not a printed value. Bounds are passed on as bounds.

Consider `C=CCc1ccc(O)c(OC)c1` [eugenol], for which, in the experiment with oral bacteria, the “inhibitory activity on several microorganisms” value was “showed an inhibitory activity on several microorganisms”.

Turning to `CCCc1c(C)ccc(C(C)C)c1O` [Example 3a, Ortho Propyl Thymol], the MIC was determined as 62.5 mg/L (≈ 325 µM) in the experiment on Staphylococcus aureus; 62.5 mg/L (≈ 325 µM) in experiment [1]; 31.2 mg/L (≈ 163 µM) with Steptococcus mutans; 31.2 mg/L (≈ 163 µM) in the experiment on Propionibacterium acnes; 62.5 mg/L (≈ 325 µM) in experiment [2]; 62.5 mg/L (≈ 325 µM) with Corynebacterium xerosis. Also, the MIC with Actinomyces neaslundii is 62.5 mg/L (≈ 325 µM); with Escherichia coli, above 1000 mg/L; in the experiment with Pseudomonas aeruginosa, above 1000 mg/L; in the experiment on Candida albicans, 125 mg/L (≈ 650 µM); with Aspergillus niger, 125 mg/L (≈ 650 µM).

Consider `CCCc1cc(C(C)C)c(O)cc1C` [Example 3b, Para Propyl Thymol], for which the MIC (with Staphylococcus aureus; in experiment [1]; in the experiment with Steptococcus mutans; with Propionibacterium acnes; in experiment [2]; in the experiment with Corynebacterium xerosis) was 31.2 mg/L (≈ 163 µM) in each case. Also, the MIC was 31.2 mg/L (≈ 163 µM) in the experiment on Actinomyces neaslundii; above 1000 mg/L with Escherichia coli; above 1000 mg/L with Pseudomonas aeruginosa; 62.5 mg/L (≈ 325 µM) in the experiment on Candida albicans; 125 mg/L (≈ 650 µM) in the experiment with Aspergillus niger.

As for `C=CCc1c(C(C)C)ccc(C)c1O` [Example 2a, Ortho Allyl Carvacrol], the MIC in the experiment on Staphylococcus aureus worked out at 62.5 mg/L (≈ 328 µM); in [1], 62.5 mg/L (≈ 328 µM); in the experiment with Steptococcus mutans, 62.5 mg/L (≈ 328 µM); with Propionibacterium acnes, 31.2 mg/L (≈ 164 µM); in experiment [2], 62.5 mg/L (≈ 328 µM); in the experiment with Corynebacterium xerosis, 62.5 mg/L (≈ 328 µM). Besides, the minimum inhibitory concentration (MIC) is 62.5 mg/L (≈ 328 µM) in the experiment with Actinomyces neaslundii; above 1000 mg/L in the experiment on Escherichia coli; above 1000 mg/L in the experiment with Pseudomonas aeruginosa; 125 mg/L (≈ 657 µM) in the experiment on Candida albicans; 125 mg/L (≈ 657 µM) in the experiment with Aspergillus niger.

Regarding `C=CCc1cc(C(C)C)c(O)cc1C` [Example 1b, Para Allyl Thymol], the MIC in the experiment with Staphylococcus aureus was found to be 62.5 mg/L (≈ 328 µM); in [1], 62.5 mg/L (≈ 328 µM); in the experiment on Steptococcus mutans, 31.2 mg/L (≈ 164 µM); in the experiment on Propionibacterium acnes it was 31.2 mg/L (≈ 164 µM); in experiment [2], 62.5 mg/L (≈ 328 µM); in the experiment on Corynebacterium xerosis, 62.5 mg/L (≈ 328 µM). The MIC was 62.5 mg/L (≈ 328 µM) in the experiment on Actinomyces neaslundii; above 1000 mg/L in the experiment with Escherichia coli; above 1000 mg/L in the experiment with Pseudomonas aeruginosa; 125 mg/L (≈ 657 µM) in the experiment with Candida albicans; 125 mg/L (≈ 657 µM) in the experiment with Aspergillus niger.

Consider `CCCc1c(C(C)C)ccc(C)c1O` [Example 4a, Ortho Propyl Carvacrol], for which the MIC amounted to 125 mg/L (≈ 650 µM) with Staphylococcus aureus; 31.2 mg/L (≈ 163 µM) in [1]; 31.2 mg/L (≈ 163 µM) in the experiment with Steptococcus mutans; 31.2 mg/L (≈ 163 µM) in the experiment with Propionibacterium acnes; 31.2 mg/L (≈ 163 µM) in experiment [2]; 31.2 mg/L (≈ 163 µM) in the experiment with Corynebacterium xerosis. In addition, the MIC in the experiment on Actinomyces neaslundii was 31.2 mg/L (≈ 163 µM); with Escherichia coli, above 1000 mg/L; in the experiment with Pseudomonas aeruginosa, above 1000 mg/L; in the experiment on Candida albicans, 62.5 mg/L (≈ 325 µM); with Aspergillus niger, 125 mg/L (≈ 650 µM).

For `C=CCc1cc(C)c(O)cc1C(C)C` [Example 2b, Para Allyl Carvacrol], the MIC (with Staphylococcus aureus; in experiment [1]; in the experiment on Steptococcus mutans; with Propionibacterium acnes; in experiment [2]; in the experiment with Corynebacterium xerosis) was 62.5 mg/L (≈ 328 µM) each time. For the same compound, the MIC in the experiment with Candida albicans and in the experiment on Aspergillus niger was 125 mg/L (≈ 657 µM) throughout.
